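In this assay, cells in 96-well plates receive the compound at five concentrations for 48 hours. Endpoints are linearly interpolated between the surrounding concentrations. At the GI50, growth is halved. TGI is the concentration that stops growth completely.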
How the values were obtained:
Assay in all cases: NCI anticancer screen, dose series, 48 h
[1] = test system: TK-10 renal
[2] = test system: SNB-75 CNS
[3] = test system: DU-145 prostate
[4] = test system: MDA-MB-435
[5] = test system: NCI-H23 lung
[6] = test system: MDA-MB-231 breast
[7] = test system: SW-620 colon
[8] = test system: RXF 393 renal
[9] = test system: MOLT-4 leukemia
[10] = test system: SF-295 CNS

Work on COc1ccc(/C(C)=C(\c2ccc(Cl)cc2)c2ccc(OCCN3CCCCC3)cc2)cc1F yielded a GI50 [1] of 3.49 µM, a TGI [1] of 9.12 µM and a GI50 [2] of 4.29 µM. It also gave a TGI [2] of 13.1 µM, a GI50 [3] of 4.64 µM and a TGI [3] of 15 µM. The GI50 [4] was 2.71 µM, the TGI [4] was 5.37 µM and the GI50 [5] was 2.78 µM. For the same compound, the TGI [5] was 7.09 µM, the GI50 [6] was 3.04 µM and the TGI [6] was 5.71 µM. For the same compound, the GI50 [7] was 2.34 µM, the TGI [7] was 5.35 µM and the GI50 [8] was 2.84 µM. For the same compound, the TGI [8] was 5.75 µM, the GI50 [9] was 3.4 µM and the TGI [9] was 11.3 µM. It also gave a GI50 [10] of 2.75 µM and a TGI [10] of 5.52 µM.

Work on COc1cc(OC)c(-c2oc3ccccc3c(=O)c2O)c(OC)c1 yielded a TGI [1] of over 100 µM, a TGI [2] of over 100 µM and a TGI [3] of over 100 µM. For the same compound, the TGI [4] was 2.5 µM, the TGI [5] was over 100 µM and the TGI [6] was over 100 µM. For the same compound, the TGI [7] was over 100 µM, the TGI [8] was 37.7 µM and the TGI [9] was over 100 µM. For the same compound, the TGI [10] was over 26.9 µM.

COC(=O)[C@@H](C)C[C@H](Cc1ccccc1)NC(=O)c1cccc([C@@H](C[C@H](C(C)C)N(C)C(=O)[C@@H](NC(=O)[C@H]2CCCCN2C)C(C)C)OC(C)=O)n1 was tested, and the TGI [1] was over 16.7 µM, the GI50 [2] was under 0.00167 µM and the TGI [2] was over 16.7 µM. It also gave a GI50 [3] of under 0.00167 µM, a GI50 [4] of under 0.00167 µM and a TGI [4] of 0.0881 µM. The GI50 [5] was 0.0034 µM, the TGI [5] was over 16.7 µM and the GI50 [6] was 0.00236 µM. The TGI [6] was 3.21 µM, the GI50 [7] was under 0.00167 µM and the TGI [7] was over 16.7 µM. The GI50 [8] was under 0.00167 µM, the TGI [8] was over 16.7 µM and the GI50 [9] was 0.00815 µM. It also gave a TGI [9] of over 16.7 µM, a GI50 [10] of under 0.00167 µM and a TGI [10] of 0.0142 µM.

Work on CN(C)c1ccc(/C=C/C(=O)c2ccc(Nc3nc(Nc4ccc(F)cc4)nc(Nc4ccc(Cl)cc4)n3)cc2)cc1 yielded a GI50 [1] of 11.3 µM, a TGI [1] of 81.3 µM and a GI50 [2] of 9 µM. For the same compound, the TGI [2] was 38.9 µM, the GI50 [3] was 5.5 µM and the TGI [3] was 27 µM. For the same compound, the GI50 [4] was 3.03 µM, the TGI [4] was 17.3 µM and the GI50 [5] was 5.95 µM. For the same compound, the TGI [5] was 39.5 µM, the GI50 [6] was 9.56 µM and the TGI [6] was 73 µM. It also gave a GI50 [7] of 6.79 µM, a TGI [7] of 33.6 µM and a GI50 [8] of 1.92 µM. It also gave a TGI [8] of 6.1 µM, a GI50 [9] of 1.55 µM and a TGI [9] of 5.23 µM. The GI50 [10] was 4.78 µM and the TGI [10] was 31.9 µM.

CNCc1ccc(C)c(NC(=O)c2ccc(Nc3nc(-c4ccccc4)c4ccccc4n3)cc2)c1 gave a GI50 [1] of 2.12 µM, a TGI [1] of 4.56 µM and a GI50 [2] of 0.842 µM. For the same compound, the TGI [2] was 2.32 µM, the GI50 [3] was 2.88 µM and the TGI [3] was 7.65 µM. For the same compound, the GI50 [4] was 1.6 µM, the TGI [4] was 3.22 µM and the GI50 [5] was 1.87 µM. For the same compound, the TGI [5] was 3.71 µM, the GI50 [6] was 1.74 µM and the TGI [6] was 3.43 µM. The GI50 [7] was 1.84 µM, the TGI [7] was 3.57 µM and the GI50 [8] was 1.51 µM. It also gave a TGI [8] of 2.95 µM, a GI50 [9] of 2.1 µM and a TGI [9] of 4.76 µM. It also gave a GI50 [10] of 1.84 µM and a TGI [10] of 3.56 µM.

CCOC(=O)C(Cc1ccc(N(CCCl)CCCl)cc1)NC(=O)C(CC(C)C)NC(C)=O (configuration not stated) gave a GI50 [1] of 1.98 µM, a TGI [1] of 4.87 µM and a GI50 [2] of 1.94 µM. The TGI [2] was 8.4 µM, the GI50 [3] was 0.472 µM and the TGI [3] was 4.41 µM. The GI50 [4] was 1.43 µM, the TGI [4] was 3.25 µM and the GI50 [5] was 0.679 µM. It also gave a TGI [5] of 2.68 µM, a GI50 [6] of 2 µM and a TGI [6] of 4.94 µM. The GI50 [7] was 1.08 µM, the TGI [7] was 6.03 µM and the GI50 [8] was 0.944 µM. It also gave a TGI [8] of 2.3 µM, a GI50 [9] of 0.302 µM and a TGI [9] of 2.4 µM. For the same compound, the GI50 [10] was 2.12 µM and the TGI [10] was 16.6 µM.

C[As](C)SCC(COC(=O)c1ccccc1)OC(=O)c1ccccc1 (configuration not stated) gave a GI50 [1] of 0.0159 µM, a TGI [1] of 0.126 µM and a GI50 [2] of 0.968 µM. For the same compound, the TGI [2] was 12.7 µM, the GI50 [3] was 0.473 µM and the TGI [3] was 4.17 µM. The GI50 [4] was 0.0191 µM, the TGI [4] was 0.0664 µM and the GI50 [5] was 0.05 µM. It also gave a TGI [5] of 0.125 µM, a GI50 [6] of 0.463 µM and a TGI [6] of 2.97 µM. It also gave a GI50 [7] of 0.0314 µM, a TGI [7] of 1.66 µM and a GI50 [8] of under 0.0169 µM. The TGI [8] was 0.0881 µM, the GI50 [9] was 0.013 µM and the TGI [9] was 0.154 µM. For the same compound, the TGI [10] was 1.35 µM.

O=C(NC(c1ccccc1)C(O)C(=O)OCc1ccc2c(c1)C(=O)c1ccccc1C2=O)c1ccccc1 (configuration not stated) gave a TGI [1] of 53.2 µM, a TGI [2] of 24.6 µM and a TGI [3] of over 100 µM. The TGI [4] was over 100 µM, the TGI [5] was 34.5 µM and the TGI [6] was 30.6 µM. The TGI [7] was over 100 µM, the TGI [8] was 8.57 µM and the TGI [9] was over 100 µM. It also gave a TGI [10] of 69.4 µM.

CC[N+]1(C)CCC(O)(/C=C/c2ccccc2)C(C(=O)/C=C/c2ccccc2)C1 (configuration not stated) showed a TGI [1] of 18.3 µM, a TGI [2] of 34.7 µM and a TGI [3] of 39.1 µM. The TGI [4] was 31.7 µM, the TGI [5] was 35 µM and the TGI [6] was 31 µM. For the same compound, the TGI [7] was 6.45 µM, the TGI [8] was 19.7 µM and the TGI [9] was 7.11 µM. The TGI [10] was 33.4 µM.

CCCCc1ccc(C(N)=O)nc1 showed a GI50 [1] of over 100 µM, a TGI [1] of over 100 µM and a GI50 [2] of over 100 µM. It also gave a TGI [2] of over 100 µM, a GI50 [3] of over 100 µM and a TGI [3] of over 100 µM. For the same compound, the GI50 [4] was over 100 µM, the TGI [4] was over 100 µM and the GI50 [5] was over 100 µM. It also gave a TGI [5] of over 100 µM, a GI50 [6] of over 100 µM and a TGI [6] of over 100 µM. It also gave a GI50 [7] of over 100 µM, a TGI [7] of over 100 µM and a GI50 [8] of over 100 µM. It also gave a TGI [8] of over 100 µM, a GI50 [9] of over 100 µM and a TGI [9] of over 100 µM. It also gave a GI50 [10] of over 100 µM and a TGI [10] of over 100 µM.

Compound COc1ccc(/C=C2\CN(Cc3cn(CCCNc4ccnc5cc(Cl)ccc45)nn3)C/C(=C\c3ccc(OC)cc3)C2=O)cc1 has a GI50 [1] of 16.5 µM, a TGI [1] of 30.1 µM and a GI50 [2] of 3.89 µM. It also gave a TGI [2] of 19.7 µM, a GI50 [3] of 1.81 µM and a TGI [3] of 3.3 µM. It also gave a GI50 [4] of 1.6 µM, a TGI [4] of 3.02 µM and a GI50 [5] of 10.8 µM. The TGI [5] was 34.5 µM, the GI50 [6] was 5.39 µM and the TGI [6] was 28.4 µM. For the same compound, the GI50 [7] was 1.69 µM, the TGI [7] was 3.57 µM and the GI50 [8] was 5.48 µM. For the same compound, the TGI [8] was 18.9 µM, the GI50 [9] was 2.55 µM and the TGI [9] was 9.4 µM. For the same compound, the GI50 [10] was 14.2 µM and the TGI [10] was 31.4 µM.
